A short description of assay [1]: Inhibition of chymotrypsin-like activity of human 20s immuno proteasome beta5i subunit assessed as substrate hydrolysis using Suc-Leu-Leu-Val-Tyr-AMC as flurogenic substrate at 0.004 mg/ml measured for 10 mins by fluorescence assay.
Assay [2] has as its target Proteasome subunit beta type-10 (PSMB10). Nature of the assay: Inhibition of 20S immuno proteosome beta2i subunit (unknown origin) assessed as substrate hydrolysis using Boc-Leu-Arg-Arg-AMC as fluorogenic substrate at 100 uM.
The nature of assay [3]: Inhibition of 20S constitutive proteosome beta2c subunit (unknown origin) assessed as substrate hydrolysis using Boc-Leu-Arg-Arg-AMC as fluorogenic substrate at 100 uM.
Assay [4] is described as follows: Inhibition of 20S constitutive proteosome beta1c subunit (unknown origin) assessed as substrate hydrolysis using Z-Leu-Leu-Glu-AMC as fluorogenic substrate at 100 uM.
Assay [5] concerns the target Proteasome subunit beta type-9 (PSMB9). Description: Inhibition of 20S immuno proteosome beta1i subunit (unknown origin) assessed as substrate hydrolysis using Z-Leu-Leu-Glu-AMC as fluorogenic substrate at 100 uM.
For assay [6] the target is unchanged. Description: Inhibition of human spleen 20S immuno proteosome beta1i subunit assessed as substrate hydrolysis using Ac-Pro-Ala-Leu-AMC as fluorogenic substrate by fluorescence based assay.

For orientation: Ki means a dissociation constant, usually derived from enzyme kinetics or from competition with a known ligand.

For the molecule `CC(C)CCNC(=O)Cn1ccc2ccc(Br)cc2c1=O`, the Ki in assay [1] was 4.39 µM.
On to `COc1cc2ccn(C/C=C/C(=O)Nc3ccccc3)c(=O)c2cc1OC`, for which the inhibitory constant (Ki) in assay [2] turned out to be 12 µM; in assay [3], 15 µM; in assay [4] it was 17 µM; in assay [5], 10 µM.
For the molecule `COc1cc2ccn(C/C=C/C(=O)NCc3ccccc3)c(=O)c2cc1OC`, the Ki in assay [3] was determined as 9 µM; in assay [4], 23 µM; in assay [5] it was 3 µM.
Turning to `COc1cc2ccn(C/C=C/C(=O)NCCc3ccccc3)c(=O)c2cc1OC`, the Ki in assay [2] was 4 µM; in assay [3], 10 µM; in assay [5], 14 µM.
The matching figures for `COc1cc2ccn(C/C=C/C(=O)NCCCc3ccccc3)c(=O)c2cc1OC`: 3 µM, 5 µM and 50 µM.
On to `CCCCNC(=O)/C=C/Cn1ccc2cc(OC)c(OC)cc2c1=O`, for which the Ki in assay [2] stood at 42 µM; in assay [3], 10 µM.
Take `COc1cc2ccn(C/C=C/C(=O)NCCC(C)C)c(=O)c2cc1OC`: the inhibitory constant (Ki) was 20 µM in assay [2], 4 µM in assay [3] and 0.27 µM in assay [5].
Consider `COc1cc2ccn(C/C=C/C(=O)NC3CCCCC3)c(=O)c2cc1OC`, for which, in assay [2], the inhibitory constant (Ki) was found to be 42 µM.
Regarding `O=C(CCn1ccccc1=O)NCc1ccccc1`, the Ki in assay [6] stood at 0.021 µM.

(Values after BindingDB's records for PubMed 34838650 (University of Messina, 2022).)
